This is an account of results in patent publication US10940139B2, “Compounds that interact with the Ras superfamily for the treatment of cancers, inflammatory diseases, rasopathies, and fibrotic disease” (Shy Therapeutics LLC, priority 2017, dated 2021).

Where two headings read alike, the source gives them in different places.

Experiment in all cases: Ras GTP binding domain inhibition assay (labeled GTP)
One test addresses KRas G12D mutant protein (Homo sapiens (Human), UniProt P01116, G12D).
In another test the target is KRas G12C mutant (Homo sapiens (Human), UniProt P01116, G12C). An outline of the steps: (§1)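 His-tagged KRas protein (3-10 μg/ml) was captured overnight at 4° C on nickel-coated wells in 50 mM Tris pH 7.5, 1 mM MgCl2, 1 mM DTT. Bound labeled GTP was read by fluorescence after washing.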
Test [1] deals with KRas G12D/Q61H double mutant (Homo sapiens (Human), UniProt P01116, G12D/Q61H). An outline of the steps:
as §1

Another test has as its target KRas wild type (Homo sapiens (Human), UniProt P01116). An outline of the steps: as §1
The mark [2] stands for this setting: 20 μM, read-out: KRas G12D % Inh.
[3] abbreviates: 20 μM, read-out: KRas G12C % Inh.
Setting [4] is: 20 μM, read-out: KRas G12D Q61H % Inh.
Where [5] appears, read: 20 μM, read-out: KRas wild type, % Inh.
The mark [6] stands for this setting: 20 μM compound, read-out: % Inhibition at 20 μM KRas G12D.
[7] abbreviates: 20 μM compound, read-out: % Inhibition at 20 μM KRas G12C.
The mark [8] stands for this setting: 20 μM compound, read-out: % Inhibition at 20 μM KRas G12D Q61H.
Where [9] appears, read: 20 μM compound, read-out: % Inhibition at 20 μM KRas wild type.

KRas G12D mutant protein, sequence (P01116-2 other isoform, or with tags, fused parts or gaps G12D): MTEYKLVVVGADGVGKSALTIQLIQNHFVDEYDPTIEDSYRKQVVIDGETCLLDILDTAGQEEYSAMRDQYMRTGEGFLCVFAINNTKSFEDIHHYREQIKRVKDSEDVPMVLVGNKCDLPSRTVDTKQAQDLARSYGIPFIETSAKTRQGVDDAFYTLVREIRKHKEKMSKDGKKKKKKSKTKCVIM
KRas wild type, sequence (P01116-2 other isoform, or with tags, fused parts or gaps): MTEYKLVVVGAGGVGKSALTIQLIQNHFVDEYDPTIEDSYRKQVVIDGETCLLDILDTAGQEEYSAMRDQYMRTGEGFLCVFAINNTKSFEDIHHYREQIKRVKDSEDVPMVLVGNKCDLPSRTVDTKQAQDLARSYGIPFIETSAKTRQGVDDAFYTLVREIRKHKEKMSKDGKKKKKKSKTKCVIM
KRas G12D/Q61H double mutant, sequence (P01116-2 other isoform, or with tags, fused parts or gaps G12D/Q61H): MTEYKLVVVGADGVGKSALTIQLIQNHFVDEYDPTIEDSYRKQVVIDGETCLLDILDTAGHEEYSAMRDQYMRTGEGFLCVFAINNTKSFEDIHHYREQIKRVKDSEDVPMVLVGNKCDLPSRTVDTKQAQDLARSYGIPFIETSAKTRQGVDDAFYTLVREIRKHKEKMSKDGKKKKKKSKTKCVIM
KRas G12C mutant, sequence (P01116-2 other isoform, or with tags, fused parts or gaps G12C): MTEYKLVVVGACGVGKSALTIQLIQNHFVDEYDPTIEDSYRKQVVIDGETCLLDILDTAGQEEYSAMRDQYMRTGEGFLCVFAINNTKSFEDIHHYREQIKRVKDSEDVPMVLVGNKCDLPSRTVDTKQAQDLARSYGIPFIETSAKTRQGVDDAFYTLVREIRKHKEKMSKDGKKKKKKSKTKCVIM

Turning to `CC(O)CNc1nc(-c2ccccn2)nc2scc(-c3ccccc3)c12` (centres unmarked) [drawing 2607], the inhibition at 20 µM was in the range of 51 to 75% at KRas G12D mutant protein (setting [2]), 1 to 25% at KRas G12C mutant (setting [3]), 51 to 75% in test [1] (setting [4]) and 25 to 50% on KRas wild type (setting [5]).

On to `CN(Cc1nnc(-c2ccccc2Cl)o1)Cc1ccccc1C(F)(F)F` [drawing 2482], for which the inhibition at 20 µM at KRas G12D mutant protein (setting [2]) was 25 to 50%; at KRas G12C mutant (setting [3]), 1 to 25%; in test [1] (setting [4]) it was 51 to 75%; at KRas wild type (setting [5]), 1 to 25%.

Take `Cc1cc2c(=O)nc(-c3cc(OCC(F)F)ccn3)[nH]c2s1` [drawing 2593]: the inhibition at 20 µM on KRas G12D mutant protein (setting [2]) lay within 51 to 75%; on KRas G12C mutant (setting [3]), 25 to 50%; in test [1] (setting [4]) it was 76 to 100%; at KRas wild type (setting [5]) it was 25 to 50%.

In the case of `O=C(c1csc2c(O)nc(-c3ccccn3)nc12)N1CCN(c2ccncc2)CC1` [drawing 2681], the inhibition at 20 µM at KRas G12D mutant protein (setting [6]) lay in the range of 51 to 75%; on KRas G12C mutant (setting [7]), 25 to 50%; in test [1] (setting [8]), 51 to 75%; at KRas wild type (setting [9]), 51 to 75%.

With `c1ccc(-c2nc(NCC3CCCO3)c3ccsc3n2)nc1` (centres unmarked) [drawing 2705], the inhibition at 20 µM was in the range of 51 to 75% on KRas G12D mutant protein (setting [6]), 51 to 75% on KRas G12C mutant (setting [7]), 25 to 50% in test [1] (setting [8]) and 25 to 50% on KRas wild type (setting [9]).

On to `O=c1nc(-c2ccccn2)[nH]c2scc(-c3ccccc3Cl)c12` [drawing 2585], for which the inhibition at 20 µM at KRas G12D mutant protein (setting [2]) lay in the range of 51 to 75%; at KRas G12C mutant (setting [3]), 25 to 50%; in test [1] (setting [4]), 51 to 75%; at KRas wild type (setting [5]), 25 to 50%.

For the molecule `O=C(Nc1nc(-c2ccccn2)cs1)c1cccc(F)c1` [drawing 2567], the inhibition at 20 µM was in the range of 51 to 75% at KRas G12D mutant protein (setting [2]), 25 to 50% on KRas G12C mutant (setting [3]), 51 to 75% in test [1] (setting [4]) and 51 to 75% on KRas wild type (setting [5]).

Turning to `O=C(c1csc2c(O)nc(-c3ccccn3)nc12)N1CCC(N2CCCC2=O)CC1` [drawing 2679], the inhibition at 20 µM (on KRas G12D mutant protein (setting [6]); at KRas G12C mutant (setting [7]); in test [1] (setting [8]); at KRas wild type (setting [9])) was 51 to 75% each time.

`O=C(OCCc1cccnc1)N1CCCc2c(O)nc(-c3ccccn3)nc21`: the inhibition at 20 µM is 51 to 75% on KRas G12D mutant protein (setting [6]), 51 to 75% at KRas G12C mutant (setting [7]), 51 to 75% in test [1] (setting [8]) and 25 to 50% on KRas wild type (setting [9]).

`Oc1nc(-c2ccccn2)nc2c(Br)csc12` [drawing 2673]: the inhibition at 20 µM on KRas G12D mutant protein (setting [6]) fell in the range of 25 to 50%; at KRas G12C mutant (setting [7]), 25 to 50%; in test [1] (setting [8]) it was 51 to 75%; at KRas wild type (setting [9]), 25 to 50%.

As to `O=C(c1csc2c(O)nc(-c3ccccn3)nc12)N(CCO)CCOCCO` [drawing 2687], the inhibition at 20 µM on KRas G12D mutant protein (setting [6]) fell in the range of 51 to 75%; on KRas G12C mutant (setting [7]) it was 51 to 75%; in test [1] (setting [8]), 76 to 100%; on KRas wild type (setting [9]), 25 to 50%.

As for `Cc1cc(C(=O)Nc2nc(-c3ccccn3)cs2)no1` [drawing 2568], the inhibition at 20 µM on KRas G12D mutant protein (setting [2]) was in the range of 25 to 50%; at KRas G12C mutant (setting [3]) it was 25 to 50%; in test [1] (setting [4]), 76 to 100%; at KRas wild type (setting [5]) it was 25 to 50%.

As for `O=C(c1ccccn1)N1CCCc2c(O)nc(-c3ccccn3)nc21` [drawing 2655], the inhibition at 20 µM at KRas G12D mutant protein (setting [6]) was in the range of 25 to 50%; on KRas G12C mutant (setting [7]), 25 to 50%; in test [1] (setting [8]) it was 51 to 75%; on KRas wild type (setting [9]) it was 25 to 50%.

Turning to `O=C(Nc1nc(-c2ccccn2)cs1)c1cccnc1` [drawing 2576], the inhibition at 20 µM at KRas G12D mutant protein (setting [2]) is 51 to 75%; at KRas G12C mutant (setting [3]), 51 to 75%; in test [1] (setting [4]) it was 51 to 75%; at KRas wild type (setting [5]), 25 to 50%.

Consider `COC(=O)c1cc(NCc2nc(CC(C)C)no2)ccc1Cl` [drawing 2612], for which the inhibition at 20 µM on KRas G12D mutant protein (setting [2]) fell in the range of 51 to 75%; at KRas G12C mutant (setting [3]) it was 25 to 50%; in test [1] (setting [4]), 51 to 75%; at KRas wild type (setting [5]), 1 to 25%.

As to `COC(=O)c1cccc(CN2CCC(CSc3ccccc3)C2)c1C#N` (centres unmarked) [drawing 2611], the inhibition at 20 µM lay within 1 to 25% at KRas G12D mutant protein (setting [2]), 25 to 50% at KRas G12C mutant (setting [3]), 25 to 50% in test [1] (setting [4]) and 1 to 25% on KRas wild type (setting [5]).

With `NC(=O)Cn1cnc2nc(-c3ccccn3)nc(N3CCOCC3)c21` [drawing 2825], the inhibition at 20 µM lay within 25 to 50% at KRas G12D mutant protein (setting [6]), 25 to 50% at KRas G12C mutant (setting [7]), 1 to 25% in test [1] (setting [8]) and 25 to 50% on KRas wild type (setting [9]).

As to `O=C(Nc1nnc(-c2ccccn2)[nH]1)C1CC(=O)N(Cc2cccc(C(F)(F)F)c2)C1` (centres unmarked) [drawing 2547], the inhibition at 20 µM is 51 to 75% on KRas G12D mutant protein (setting [2]), 1 to 25% at KRas G12C mutant (setting [3]), 51 to 75% in test [1] (setting [4]) and 25 to 50% on KRas wild type (setting [5]).

Consider `Cc1cccc(CN(Cc2ccccn2)Cc2nccn2C)c1` [drawing 2613], for which the inhibition at 20 µM on KRas G12D mutant protein (setting [2]) is 51 to 75%; at KRas G12C mutant (setting [3]), 25 to 50%; in test [1] (setting [4]), 51 to 75%; at KRas wild type (setting [5]), 25 to 50%.

With `CC1(O)CCN(C(=O)c2csc3c(O)nc(-c4ccccn4)nc23)CC1` [drawing 2683], the inhibition at 20 µM at KRas G12D mutant protein (setting [6]) was in the range of 51 to 75%; at KRas G12C mutant (setting [7]), 25 to 50%; in test [1] (setting [8]), 25 to 50%; on KRas wild type (setting [9]), 51 to 75%.

In the case of `O=C(Nc1nc(-c2ccccn2)cs1)c1ccncc1` [drawing 2578], the inhibition at 20 µM (on KRas G12D mutant protein (setting [2]); on KRas G12C mutant (setting [3]); in test [1] (setting [4]); at KRas wild type (setting [5])) was 51 to 75% each time.

In the case of `COc1cccc(C(=O)Nc2nc(-c3ccccn3)cs2)c1` [drawing 2580], the inhibition at 20 µM on KRas G12D mutant protein (setting [2]) lay in the range of 51 to 75%; at KRas G12C mutant (setting [3]), 51 to 75%; in test [1] (setting [4]) it was 51 to 75%; at KRas wild type (setting [5]), 25 to 50%.

Regarding `CS(=O)(=O)N1CCCc2cc(C(=O)Nc3nnc(-c4ccccn4)[nH]3)ccc21` [drawing 2561], the inhibition at 20 µM was 51 to 75% at KRas G12D mutant protein (setting [2]), 25 to 50% at KRas G12C mutant (setting [3]), 76 to 100% in test [1] (setting [4]) and 51 to 75% at KRas wild type (setting [5]).

Take `CS(=O)(=O)Cc1ccc(C(=O)Nc2nc(-c3ccccn3)cs2)cc1` [drawing 2572]: the inhibition at 20 µM fell in the range of 1 to 25% on KRas G12D mutant protein (setting [2]), 25 to 50% on KRas G12C mutant (setting [3]), 51 to 75% in test [1] (setting [4]) and 1 to 25% at KRas wild type (setting [5]).

As to `O=C(Nc1nnc(-c2ccccn2)[nH]1)c1ccn(-c2cccc(Cl)c2)n1` [drawing 2559], the inhibition at 20 µM lay within 76 to 100% on KRas G12D mutant protein (setting [2]), 1 to 25% on KRas G12C mutant (setting [3]), 76 to 100% in test [1] (setting [4]) and 25 to 50% at KRas wild type (setting [5]).

On to `O=C(c1ccn(-c2ccccc2)n1)N1CCCc2c(O)nc(-c3ccccn3)nc21` [drawing 2644], for which the inhibition at 20 µM at KRas G12D mutant protein (setting [2]) was in the range of 51 to 75%; on KRas G12C mutant (setting [3]), 25 to 50%; in test [1] (setting [4]), 76 to 100%; on KRas wild type (setting [5]) it was 25 to 50%.

Turning to `COc1ccc(C(=O)Nc2nc(-c3ccccn3)cs2)cn1` [drawing 2581], the inhibition at 20 µM fell in the range of 76 to 100% at KRas G12D mutant protein (setting [2]), 51 to 75% at KRas G12C mutant (setting [3]), 51 to 75% in test [1] (setting [4]) and 51 to 75% on KRas wild type (setting [5]).

Turning to `O=C(c1csc2c(O)nc(-c3ccccn3)nc12)N1CCN(c2ccccc2)CC1` [drawing 2680], the inhibition at 20 µM at KRas G12D mutant protein (setting [6]) fell in the range of 51 to 75%; on KRas G12C mutant (setting [7]) it was 25 to 50%; in test [1] (setting [8]), 76 to 100%; on KRas wild type (setting [9]), 51 to 75%. Further, in test [1] (serial dilution, read-out: KRas G12D Q61H (classes E-H, IC50)), the IC50 lay within 5 to 10 µM.

With `O=C(Nc1nc(-c2ccccn2)cs1)c1ccccn1` [drawing 2573], the inhibition at 20 µM was 51 to 75% on KRas G12D mutant protein (setting [2]), 51 to 75% on KRas G12C mutant (setting [3]), 76 to 100% in test [1] (setting [4]) and 51 to 75% on KRas wild type (setting [5]).

Consider `Cc1cnc(-c2ccccn2)nc1NC(=O)COCc1ccncc1`, for which the inhibition at 20 µM (on KRas G12D mutant protein (setting [6]); on KRas G12C mutant (setting [7]); in test [1] (setting [8]); on KRas wild type (setting [9])) was 51 to 75% in each case.

For the molecule `COc1ccc(OCc2nc(CNCCc3nnc4n3CCC4)cs2)cc1` [drawing 2565], the inhibition at 20 µM on KRas G12D mutant protein (setting [2]) lay in the range of 51 to 75%; at KRas G12C mutant (setting [3]) it was 25 to 50%; in test [1] (setting [4]), 51 to 75%; at KRas wild type (setting [5]), 1 to 25%.

The IC50 is the concentration needed to halve the response being measured.
